Assay results reported in publication PMC7261837, “Circumdatin D Exerts Neuroprotective Effects by Attenuating LPS-Induced Pro-Inflammatory Responses and Downregulating Acetylcholinesterase Activity In Vitro and In Vivo” (Frontiers in Pharmacology, 2020).

What was measured:
[1] = system: BV-2 cells; experiment: LPS-induced NO production in BV-2 cells (Griess method); format: cell-based, murine; conditions: 1 μg/ml LPS, 24 h
Experimental: BV-2 cells (murine microglia cell line) was obtained from Peking Union Medical College, Cell Bank (Beijing, China) and maintained in DMEM containing 10% FBS. Cells were grown in a humidified atmosphere of 5% CO2 incubator at 37°C.
BV2 cells were seeded and incubated overnight, and followed by treatment with different doses of circumdatins for indicated period with or without LPS (1 μg/ml) stimulation. The cells without circumdatins and LPS treatment were used as the control group.
The NO levels in culture media was determined using a Griess method. Cells were treated with different concentrations of circumdatins in the presence or absence of LPS for 24 h. After that, the supernatant fraction of the culture media was collected and mixed with the same volume of Griess reagent (1% sulfanilamide/0.1% naphthyl ethylene diamine dihydrochloride/2% H3PO4). Then, the absorbance was measured at 540 nm using a microplate spectrophotometer (Thermo Scientifics, USA). The concentration of nitrite was calculated from a calibration curve obtained from standards sodium nitrite solutions.

[2] = target: T1, acetylcholinesterase (AChE) from Electrophorus electrics (Electric eel) (Electrophorus electricus, UniProt O42275); experiment: biochemical; conditions: modified Ellman's colorimetric method; mean ± SD (n = 3)
T1 construct: purchased Sigma Chemical Co. (St Louis, MO, USA)
T1 sequence (O42275 24-633): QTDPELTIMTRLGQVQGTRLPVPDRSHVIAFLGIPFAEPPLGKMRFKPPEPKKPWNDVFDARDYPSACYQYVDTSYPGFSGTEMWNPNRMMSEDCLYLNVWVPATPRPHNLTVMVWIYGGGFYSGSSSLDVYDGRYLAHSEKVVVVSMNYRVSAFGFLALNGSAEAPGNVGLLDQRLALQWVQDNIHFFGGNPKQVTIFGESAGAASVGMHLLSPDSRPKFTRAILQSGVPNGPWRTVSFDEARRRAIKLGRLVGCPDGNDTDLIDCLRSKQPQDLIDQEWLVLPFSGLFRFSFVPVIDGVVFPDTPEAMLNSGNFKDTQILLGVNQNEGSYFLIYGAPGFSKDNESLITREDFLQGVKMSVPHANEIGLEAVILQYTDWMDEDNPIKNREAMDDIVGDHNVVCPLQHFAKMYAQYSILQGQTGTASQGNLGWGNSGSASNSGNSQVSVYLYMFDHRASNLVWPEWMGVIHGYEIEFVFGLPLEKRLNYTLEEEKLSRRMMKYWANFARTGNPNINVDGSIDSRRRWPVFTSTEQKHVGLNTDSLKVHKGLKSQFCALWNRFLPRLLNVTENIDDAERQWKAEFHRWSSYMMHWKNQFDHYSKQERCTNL
Source text: Dulbecco's modified Eagle medium (DMEM), α-minimum essential medium (α-MEM) and fetal bovine serum (FBS) were provided by Hyclone (Waltham, USA). 3-(4,5-Dimethylthiazol-2-yl)-2,5-diphenyltetrazolium bromide (MTT), acetylcholinesterase (AChE) from Electrophorus electrics (Electric eel) and lipopolysaccharide (LPS) (Escherichia coli 055: B5) were provided by Sigma Chemical Co. (St Louis, MO, USA). Enzyme-linked immunosorbent assay (ELISA) kits for IL-1β and TNF-α and Griess reagent for nitric oxide (NO) assay kit were provided by ExCell Bio (Shanghai, China). Antibodies for TLR4, MyD88, JNK, p-JNK, p38, p-p38, ERK, p-ERK, IκB, p-IκB, IKK, p-IKK, NF-κB, STAT3、p-STAT3、Jak2, p-Jak2, GAPDH and Histone H3 were purchased from Cell Signaling Technology (Danvers, USA). Antibodies for iNOS and COX-2 were provided by Abcam (Cambridge, UK).
AChE activities in vitro and in vivo were assessed by a modified Ellman's spectrophotometric method ([Szwajgier, 2015]). Briefly, AChE (80 μl) in phosphate buffer (Na2HPO4/NaH2PO4, pH 8.0) and compound (20 μl) diluted in same phosphate buffer were added to 96 microplates as the reaction mixture. The mixture was incubated at 37°C for 30 min before addition of 10 μl 5,5′-dithiobis (2-nitrobenzoic acid) (DTNB) (3 mM) and 10 μl acetylthiocholine iodide (ATCI) (15 mM). After incubation for 20 min, the absorbance was detected at 412 nm using a microplate spectrophotometer (Thermo Scientifics, USA). […] The inhibitory rate of AChE was calculated, and the IC50 values were calculated by GraphPad Prism® 5.0 software (GraphPad Inc., San Diego, USA).

[3] = target: Recombinant AChE (Homo sapiens, UniProt P22303); experiment: biochemical; conditions: SPR, 25°C, 1:1 Langmuir binding model; read-out: AChE Affinity Kd
Recombinant AChE, sequence (P22303 32-614): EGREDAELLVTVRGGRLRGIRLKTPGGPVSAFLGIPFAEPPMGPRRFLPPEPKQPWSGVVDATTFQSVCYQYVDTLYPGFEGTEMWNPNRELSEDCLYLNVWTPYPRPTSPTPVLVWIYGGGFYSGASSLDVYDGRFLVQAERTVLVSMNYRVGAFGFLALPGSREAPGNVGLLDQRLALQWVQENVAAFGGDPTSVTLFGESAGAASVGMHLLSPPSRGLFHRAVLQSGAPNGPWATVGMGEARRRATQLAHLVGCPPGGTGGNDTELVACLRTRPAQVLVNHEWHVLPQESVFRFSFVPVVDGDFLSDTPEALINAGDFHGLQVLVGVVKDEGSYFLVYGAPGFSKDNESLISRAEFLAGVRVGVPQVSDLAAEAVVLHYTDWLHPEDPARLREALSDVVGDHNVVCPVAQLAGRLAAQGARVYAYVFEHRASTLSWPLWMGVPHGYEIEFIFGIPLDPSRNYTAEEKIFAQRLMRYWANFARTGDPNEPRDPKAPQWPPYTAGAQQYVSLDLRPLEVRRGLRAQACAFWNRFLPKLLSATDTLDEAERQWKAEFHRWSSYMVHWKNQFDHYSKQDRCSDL
Experimental: The experiments for surface plasmon resonance (SPR) interaction were conducted at 25°C using the Biacore T200 system (GE Healthcare, Sweden). Recombinant AChE diluted in sodium acetate buffer (100 mM, pH 4.5) was used as the stock for the following experiments. CM5 sensor chips were coupled with AChE using an amine coupling kit (GE Healthcare, Buckinghamshire, UK). Thereafter, different concentrations of compounds were injected as analytes using PBS-P (10mM phosphate buffer with 2.7 mM KCl and 137 mM NaCl, 0.05% polysorbate 20, […]) as running buffer. For binding assays, the analytes were introduced with a 60 s contact time followed by a 60 s dissociation time at a flow rate of 45 μl/min. The surface was regenerated with 10 mM glycine (pH 3.0) for 30 s. The affinity constants were calculated using the 1:1 Langmuir binding model of Biacore evaluation software (T200 Version 1.0).

[4] = system: NF-κB; experiment: NF-κB luciferase reporter assay; format: cell-based; conditions: Homo sapiens; SW480 cells stably transfected with NF-κB luciferase reporter gene, induced by LPS; mean ± SD (n = 3); read-out: NF-κB Activation IC50
Experimental: SW480-NF-κB cells were seeded at a density of 5 × 10^4 cells/well in 24-well plates and incubated with circumdatins with or without LPS stimulation for 6 h. The κB-dependent luciferase reporter activity in cell extracts was monitored using an automated microplate reader.

Row | Structure (SMILES) | LPS-induced NO production [1] | IC50 [2] [µM] | Kd [3] [µM] | IC50 [4] [µM]
1 | COc1ccc2nc3n(c(=O)c2c1)-c1ccccc1C(=O)N1CCC[C@@H]31 [circumdatin H] | decreased NO production only in high dose | 98 ± 5.7 | 95 | 33.3 ± 1.4
2 | C[C@@H]1NC(=O)c2cc(O)c(O)cc2-n2c1nc1ccccc1c2=O [2-hydroxycircumdatin C] |  | 5.6 ± 0.9 | 3.6 | 16.5 ± 1.9
3 | C[C@@H]1NC(=O)c2cc(O)ccc2-n2c1nc1c(O)cccc1c2=O [circumdatin I] | decreased NO production only in high dose | 11.6 ± 2.6 | 65 | 18.6 ± 1.9
4 | C[C@@H]1NC(=O)c2cc(O)ccc2-n2c1nc1ccccc1c2=O [circumdatin C] | decreased NO production only in high dose |  | 85 | 15.6 ± 2.3
5 | C[C@@H]1NC(=O)c2ccccc2-n2c1nc1ccccc1c2=O [circumdatin F] | decreased NO production only in high dose | 10 ± 1.9 | 240 | 11.8 ± 0.9
6 | C[C@@H]1NC(=O)c2ccccc2-n2c1nc1c(O)cccc1c2=O [circumdatin G] | significant reduction of NO levels | 15.8 ± 2 | 120 | 18.9 ± 2.1
